{"source": "patent US6506390B2", "about": "“Progestogen-anti-progestogen regimens” (Akzo Nobel, priority 1996, dated 2003)", "origin": "cited, not measured here", "key": {"[1]": {"details": "based on practically applied doses; for relative potency in progestogenic activity: levonorgestrel, desogestrel and 3-keto-desogestrel compared with each other"}, "[2]": {"details": "as an approximation"}}, "data": [{"molecule": "C#C[C@]1(O)CC[C@H]2[C@@H]3CCC4=CCCC[C@@H]4[C@H]3C(=C)C[C@@]21CC", "note": "[desogestrel, 13-ethyl-11-methylene-18,19-di-nor-17α-pregn-4-en-20-yn-17-ol]", "values": [{"measurement": "relative potency in progestogenic activity", "setting": "[1]", "value": "relatively equipotent"}]}, {"molecule": "C#C[C@]1(O)CC[C@H]2[C@@H]3CCc4cc(OC)ccc4[C@H]3CC[C@@]21C", "note": "[mestranol, 17-α-ethinyl estradiol 3-methylether]", "values": [{"measurement": "amount equivalent in estrogenic activity to 1 mg of 17β-estradiol", "setting": "[2]", "value": "~0.030", "unit": "mg"}]}, {"molecule": "C#C[C@]1(O)C=C[C@H]2[C@@H]3CCC4=CC(=O)CC[C@@H]4[C@H]3CC[C@@]21CC", "note": "[Gestodene, gestodene]", "values": [{"measurement": "potency relative to levonorgestrel, desogestrel and 3-keto-desogestrel", "setting": "[1]; progestogenic activity", "value": "approximately 1.5 times"}]}, {"molecule": "C#CC1(O)CC[C@H]2[C@@H]3CCC4=CC(=O)CC[C@@H]4[C@H]3CC[C@@]21CC", "note": "(some centres unmarked) [Norgestrel, norgestrel]", "values": [{"measurement": "potency relative to levonorgestrel", "setting": "[1]; progestogenic activity", "value": "about one-half"}]}, {"molecule": "C#C[C@]1(O)CC[C@H]2[C@@H]3CCC4=CC(=O)CC[C@@H]4[C@H]3C(=C)C[C@@]21CC", "note": "[3-keto-desogestrel]", "values": [{"measurement": "relative potency in progestogenic activity", "setting": "[1]", "value": "relatively equipotent"}]}]}
